From paper PMC6476926, “Dichloro-Phenyl-Benzotriazoles: A New Selective Class of Human Respiratory Syncytial Virus Entry Inhibitors” (Frontiers in Chemistry, 2019)

How the values were obtained:
[1] = tested on: RSV; test: microbe, parasite or virus in culture; assay type: cell-based, Human Respiratory Syncytial Virus (RSV) strain A2; conditions: human respiratory syncytial virus, Vero 76, read-out: EC50 RSV
[2] = tested on: HIV-1IIIB; test: microbe, parasite or virus in culture; assay type: cell-based, Human Immunodeficiency Virus type-1 (HIV-1); conditions: Human immunodeficiency virus 1, MT4, read-out: EC50 HIV-1IIIB
[3] = tested on: BVDV; test: microbe, parasite or virus in culture; assay type: cell-based; conditions: Bovine viral diarrhea virus isolates and strains, MDBK, read-out: EC50 BVDV
[4] = tested on: YFV; test: microbe, parasite or virus in culture; assay type: cell-based; conditions: Yellow fever virus, BHK, read-out: EC50 YFV
[5] = tested on: Reo-1; test: microbe, parasite or virus in culture; assay type: cell-based, Reovirus type-1 (Reo-1); conditions: Reovirus sp., BHK, read-out: EC50 Reo-1
[6] = tested on: CV-B5; test: microbe, parasite or virus in culture; assay type: cell-based, Human Enterovirus B [coxsackie type B5 (CV-B5)]; conditions: Enterovirus B, CVB5, Vero 76, read-out: EC50 CV-B5
[7] = tested on: Sb-1, VSV, VV, HSV-1; test: organism not typed; assay type: cell-based; conditions: Vero 76, read-out: EC50 Sb-1, VSV, VV, HSV-1
[8] = in vitro; conditions: cattle (Bos taurus)
[9] = Cytotoxicity, MTT method, BHK cells; conditions: Syrian hamster (Mesocricetus auratus)
[10] = Cytotoxicity, MTT method, MT-4 cells; conditions: human
[11] = Cytotoxicity, MTT method, Vero-76 cells; conditions: African green monkey (Cercopithecus aethiops)

Structure (SMILES) | EC50 [1] [µM] | EC50 [2] [µM] | EC50 [3] [µM] | EC50 [4] [µM] | EC50 [5] [µM] | EC50 [6] [µM] | EC50 [7] [µM] | CC50 [8] [µM] | CC50 [9] [µM] | CC50 [10] [µM] | CC50 at 5 days [11] [µM] | melting point [°C]
Nc1ccc(-n2nnc3cc(Cl)c(Cl)cc32)cc1 [1a, 1-(4-aminophenyl)-5,6-dichlorobenzotriazole] | 20 | > 100 | 75 | > 100 | > 100 | 85 | > 100 | > 100 | > 100 | > 100 | > 100 | –
Nc1ccc(-n2nc3cc(Cl)c(Cl)cc3n2)cc1 [1b, 2-(4-aminophenyl)-5,6-dichlorobenzotriazole] | 6 | > 52 | 20 | > 100 | > 100 | > 100 | > 100 | ≥ 100 | > 100 | 52 | > 100 | –
C[C@@]1(O)[C@H](O)[C@@H](CO)O[C@H]1n1cnc2c(=O)[nH]c(N)nc21 [2MG, 2’-C-methyl-guanosine, reference compound] | – | – | 1.1 ± 0.1 | 1.9 ± 0.1 | 0.7 ± 0.2 | – | – | > 100 | > 100 | – | – | –
CC(=O)Nc1ccc(-n2nnc3cc(Cl)c(Cl)cc32)cc1 [5a, N-[4-(5,6-dichloro-1H-benzo[d][1,2,3]triazol-1-yl)phenyl]acetamide] | 3 | > 35 | > 43 | > 53 | > 53 | 17 | > 30 | 43 | 53 | 35 | 30 | 209 to 211
CCC(=O)Nc1ccc(-n2nnc3cc(Cl)c(Cl)cc32)cc1 [5b, N-[4-(5,6-dichloro-1H-benzo[d][1,2,3]triazol-1-yl)phenyl]propionamide] | 4 | > 28 | > 100 | > 54 | > 54 | > 30 | > 30 | > 100 | 54 | 28 | 30 | 175 to 177
CCCC(=O)Nc1ccc(-n2nnc3cc(Cl)c(Cl)cc32)cc1 [5c, N-[4-(5,6-dichloro-1H-benzo[d][1,2,3]triazol-1-yl)phenyl]butanamide] | 4 | > 60 | > 100 | > 100 | > 100 | 9 | > 100 | > 100 | > 100 | 60 | 10 | 202 to 204
CCCC(=O)N(C(=O)CCC)c1ccc(-n2nnc3cc(Cl)c(Cl)cc32)cc1 [5d, N-butyryl-N-[4-(5,6-dichloro-1H-benzo[d][1,2,3]triazol-1-yl)phenyl] butyramide] | > 30 | > 35 | > 14 | > 16 | > 16 | > 20 | > 20 | 14 | 16 | 35 | 20 | 202 to 204
CC(=O)Nc1ccc(-n2nc3cc(Cl)c(Cl)cc3n2)cc1 [6a, N-[4-(5,6-dichloro-2H-benzo[d][1,2,3]triazol-2-yl)phenyl]acetamide] | > 100 | > 100 | > 100 | > 100 | > 100 | > 100 | > 100 | > 100 | > 100 | > 100 | > 100 | > 290
CCC(=O)Nc1ccc(-n2nc3cc(Cl)c(Cl)cc3n2)cc1 [6b, N-[4-(5,6-dichloro-2H-benzo[d][1,2,3]triazol-2-yl)phenyl]propanamide] | > 100 | > 100 | > 100 | > 100 | > 100 | > 100 | > 100 | > 100 | > 100 | > 100 | > 100 | 258 to 260
CCCC(=O)Nc1ccc(-n2nc3cc(Cl)c(Cl)cc3n2)cc1 [6c, N-[4-(5,6-dichloro-2H-benzo[d][1,2,3]triazol-2-yl)phenyl]butanamide] | > 100 | > 100 | > 100 | > 100 | > 100 | > 100 | > 100 | > 100 | > 100 | > 100 | > 100 | 243 to 245
